Assays:
[1] = test system: liver cells (Chang liver cells); assay: Inhibition of acetaminophen (APAP)-induced apoptosis of liver cells, cell viability by cell counting kit-8; assay type: cell-based
Method: (§1) Specifically, the acetaminophen was purchased from Sigma Chemical Co. (St. Louis, Mo., USA). The liver cells (Chang liver cells) were purchased from the American Type Culture Collection (ATCC; Manassas, VA, USA). The present inventors simultaneously treated and cultured the liver cell (Chang liver cell) with CHP 0.1, 1, 5 or 10 mg/mL respectively together with APAP 15 mM for 24 hours (FIG. 2A).
Further, the present inventors pre-treated and pre-cultured the liver cell (Chang liver cell) with CHP 0.1, 1, 5 or 10 mg/mL for 24 hours and subsequently post-treated and post-cultured the liver cell (Chang liver cell) with APAP 15 mM for 24 hours (FIG. 2B). The cell viability was analyzed using cell counting kit-8 (Dojindo Laboratories; Kumamoto, Japan). Subsequently, the cell viability was measured with a microplate reader (Molecular Devices, LLC; Sunnyvale, CA, USA).

[2] = test system: ICR mice; assay: Kidney function protection against cisplatin kidney toxicity in mice, serum BUN; assay type: in vivo; settings: CHP 1 mg/kg orally daily for 1 week, then cisplatin i.p., serum after 24 hours, FIG. 6
Description: (§2) Five mice were grouped into one group. We fed water and food to mice in the cage. We adapted the mice for experiments for one week prior to the experiment.

[3] = test system: kidney cells (LLC-PK1 cells); assay: Inhibition of gentamicin (GM)-induced apoptosis of kidney cells, cell viability by cell counting kit-8; assay type: cell-based
Method: as §1, with “cyclo histidine-proline (CHP) was produced by requesting only a target spec (99% purity) from a peptide manufacturer (Bachem; Bubendorf, Switzerland). The gentamycin” for “acetaminophen”, “kidney” for “liver”, “(LLC-PK1” for “(Chang liver”, “GM 5 mg/mL” for “APAP 15 mM”, “6” for “24”, “1A).” for “2A).”
Further, the present inventors pre-treated and pre-cultured the kidney cell (LLC-PK1 cell) with CHP 0.1, 1, 5 or 10 mg/mL for 2 hours and subsequently post-treated and post-cultured the kidney cell (LLC-PK1 cell) with GM 5 mg/mL for 4 hours (FIG. 1B). The cell viability was analyzed using cell counting kit-8 (Dojindo Laboratories; Kumamoto, Japan). Subsequently, the cell viability was measured with a microplate reader (Molecular Devices, LLC; Sunnyvale, CA, USA).

[4] = test system: ICR mice; assay: Kidney function protection against cisplatin kidney toxicity in mice, serum creatinine; assay type: in vivo; settings: CHP 1 mg/kg orally daily for 1 week, then cisplatin 10 mg/kg i.p., serum after 72 hours, FIG. 5
Description: as §2

[5] = test system: SD mice; assay: Liver function protection against cisplatin liver toxicity in mice, serum ALT and AST; assay type: in vivo; settings: CHP 1, 5 or 10 mg/L in drinking water for 1 week, then cisplatin 7.5 mg/kg i.p., serum after 24 hours
Method: To determine the protective effect of CHP on liver toxicity in mice, the present inventors purchased SD mice from Koatech, and the mice were raised under constant conditions (temperature: 23±3° C., relative humidity: 55±10%, daily cycle: 12 hours). Five mice were grouped into one group. We fed water and food to mice in the cage. We adapted the mice for experiments for one week prior to the experiment. After the adaption period, the mice were grouped into five groups.
1 group ingested water and was set as a negative control. […] These 3, 4 and 5 groups were set as liver damage prevention effect groups. The CHP ingestion using drinking water was performed once every two days.
To measure ALT and AST, we collected blood from the abdominal aorta from a mouse. We separated only serum from the blood using a centrifugal separator and analyzed the serum using an automatic analyzer (Hitachi 7180; Tokyo, Japan).
We conducted individual comparisons using the […] post-test thereon.

CC(=O)Nc1ccc(O)cc1 [APAP, acetaminophen, reference compound]
apoptosis of liver cells caused by the drug ([1]; APAP 15 mM): induced apoptosis of liver cells

O=C1N[C@@H](Cc2c[nH]cn2)C(=O)N2CCC[C@@H]12 [CHP, cyclo histidine-proline]
inhibition of acetaminophen (APAP)-induced apoptosis, liver cells co-treated with APAP and CHP ([1]; CHP 0.1, 1, 5 or 10 mg/mL together with APAP 15 mM for 24 hours, FIG. 2A): significantly inhibited
inhibition of apoptosis of liver cells induced by acetaminophen (APAP) ([1]; CHP 0.1, 1, 5 or 10 mg/mL, APAP 15 mM, FIG. 2A and 2B): inhibited the apoptosis of liver cells induced by the acetaminophen (APAP) in a concentration-dependent manner
cisplatin-induced BUN [2]: significantly reduced
inhibition of gentamicin (GM)-induced apoptosis, kidney cells pre-treated with CHP ([3]; CHP 0.1, 1, 5 or 10 mg/mL pre-treatment 2 hours, then GM 5 mg/mL 4 hours, FIG. 1B): greatly inhibited
inhibition of apoptosis of kidney cells induced by gentamicin (GM) ([3]; CHP 0.1, 1, 5 or 10 mg/mL, GM 5 mg/mL, FIG. 1A and 1B): inhibited the apoptosis of kidney cells induced by the gentamicin (GM) in a concentration-dependent manner
cisplatin-induced creatinine [4]: significantly reduced
cisplatin-induced ALT ([5]; FIG. 3): significantly reduced
cisplatin-induced AST ([5]; FIG. 4): significantly reduced

gentamicin [GM, reference compound]
apoptosis of kidney cells caused by the drug ([3]; GM 5 mg/mL): induced apoptosis of kidney cells

Reference: patent publication US11890317B2, “Cell-protecting composition containing cyclo histidine-proline as active ingredient” (NovMetaPharma Co., Ltd., priority 2016, dated 2024)
